In the supplement of paper PMC11208160:

Assay: recombinant UMI read abundance after kanamycin selection (control-corrected) (log10(CPM+1)); higher = more efficient recombination; extreme values may be limits of the assay; sequences stand for … in AGTGCAGAGAAAATCGGCCAGTTTTCTCTGCCTGCAGTCCGCATGCCGTGGGACCCCTTGGGTTCTAACCTGTTGCCTAGATTTATGCAGCGGACTGCCTTTCTCCCAAAGTGATAAACCGG…AGGTTGGTTTCACT; site = the 11-nt donor
Summary of the method: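 Each donor and donor-binding-loop pair was tracked by a 12-nt UMI on a plasmid carrying a promoterless kanamycin gene. With a second plasmid supplying a fixed target and T7-inducible IS621 bridge recombinase, the pool was plated in Escherichia coli on IPTG (0.07 mM) plus kanamycin or unselected. Sequencing of recombinant UMIs across the donor–target junction gave counts expressed as log10(CPM+1) after replicate averaging and control-derived scaling.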
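Also: IS621 bridge recombinase in Escherichia coli cells against a fixed T5 target plasmid.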

| Sequence | recombinant UMI read abundance (log10) |
| --- | --- |
| CTCGCACCATGGACCGGTTTTCCCGGTAATCCGTATTTGTC (site CTCGCACCTGA) | 0 |
| CTCGTCTCATGGACCGGTTTTCCCGGTAATCCGTATTTGAC (site CTAGTATCTGT) | 0 |
| CTCGTCTCATGGACCGGTTTTCCCGGTAATCCGTATTTGAC (site CTCGTCTCTGT) | 1.54 |
| CTCTACACATGGACCGGTTTTCCCGGTAATCCGTATTTGCA (site CTCTACACTAG) | 1.37 |
| CTCTACACATGGACCGGTTTTCCCGGTAATCCGTATTTGCA (site CTCTACACTCG) | 0.499 |
| CTCTACACATGGACCGGTTTTCCCGGTAATCCGTATTTGCA (site CTCTACACTGG) | 1.53 |
| CTCTACACATGGACCGGTTTTCCCGGTAATCCGTATTTGCA (site CTCTACACTTG) | 2.37 |
| CTCTACACATGGACCGGTTTTCCCGGTAATCCGTATTTGGT (site CTCTACACTAA) | 0.0359 |
| CTCTACACATGGACCGGTTTTCCCGGTAATCCGTATTTGGT (site CTCTACACTAC) | 0.0415 |
| CTCTACACATGGACCGGTTTTCCCGGTAATCCGTATTTGGT (site CTCTACACTAG) | 0.21 |
| CTCTACACATGGACCGGTTTTCCCGGTAATCCGTATTTGGT (site CTCTACACTAT) | 0.203 |
| CTCTAGTCATGGACCGGTTTTCCCGGTAATCCGTATTTGTG (site CTCTAGTCTCA) | 1.99 |
| CTCTTCACATGGACCGGTTTTCCCGGTAATCCGTATTTGCT (site CTCTACACTAG) | 1.29 |
| CTCTTCACATGGACCGGTTTTCCCGGTAATCCGTATTTGCT (site CTCTCCACTAG) | 1.14 |
| CTCTTCACATGGACCGGTTTTCCCGGTAATCCGTATTTGCT (site CTCTGCACTAG) | 0 |
| CTCTTCACATGGACCGGTTTTCCCGGTAATCCGTATTTGCT (site CTCTTCACTAG) | 2.46 |
| CTCTTCTCATGGACCGGTTTTCCCGGTAATCCGTATTTGGG (site CACTTCTCTCC) | 0 |
| CTCTTCTCATGGACCGGTTTTCCCGGTAATCCGTATTTGGG (site CCCTTCTCTCC) | 0.0128 |
| CTCTTCTCATGGACCGGTTTTCCCGGTAATCCGTATTTGGG (site CGCTTCTCTCC) | 0.014 |
| CTCTTCTCATGGACCGGTTTTCCCGGTAATCCGTATTTGGG (site CTCTTCTCTCC) | 0 |
| CTCTTGGCATGGACCGGTTTTCCCGGTAATCCGTATTTGAA (site CTCTTGGCTTT) | 1.08 |
| CTCTTTGCATGGACCGGTTTTCCCGGTAATCCGTATTTGAC (site CTCTTTGCTGT) | 0.503 |
| CTGAACCCATGGACCGGTTTTCCCGGTAATCCGTATTTGTT (site CGGAATCCTAA) | 0.0138 |
| CTGAACCCATGGACCGGTTTTCCCGGTAATCCGTATTTGTT (site CTGAACCCTAA) | 0.285 |
| CTGAACTCATGGACCGGTTTTCCCGGTAATCCGTATTTGCG (site CTGAACTCTCG) | 2.99 |

| Sequence | recombinant UMI read abundance (log10) |
| --- | --- |
| CTGAATCCATGGACCGGTTTTCCCGGTAATCCGTATTTGGT (site CGGAATCCTAA) | 0.0153 |
| CTGAATCCATGGACCGGTTTTCCCGGTAATCCGTATTTGGT (site CTGAATCCTAC) | 0.615 |
| CTGACATCATGGACCGGTTTTCCCGGTAATCCGTATTTGCT (site CAGACATCTAG) | 1.06 |
| CTGACATCATGGACCGGTTTTCCCGGTAATCCGTATTTGCT (site CCGACATCTAG) | 1.39 |
| CTGACATCATGGACCGGTTTTCCCGGTAATCCGTATTTGCT (site CGGACATCTAG) | 0.00554 |
| CTGACATCATGGACCGGTTTTCCCGGTAATCCGTATTTGCT (site CTGACATCTAG) | 2.47 |
| CTGACGACATGGACCGGTTTTCCCGGTAATCCGTATTTGTT (site CTGACGACTAA) | 0.0946 |
| CTGACTCCATGGACCGGTTTTCCCGGTAATCCGTATTTGTT (site CGGAATCCTAA) | 0.00356 |
| CTGACTCCATGGACCGGTTTTCCCGGTAATCCGTATTTGTT (site CTGACTCCTAA) | 0.838 |
| CTGATCCCATGGACCGGTTTTCCCGGTAATCCGTATTTGTG (site CTGATCCCTCA) | 0.794 |
| CTGCAAGCATGGACCGGTTTTCCCGGTAATCCGTATTTGTA (site CTGCAAGCTTA) | 1.8 |
| CTGCCATCATGGACCGGTTTTCCCGGTAATCCGTATTTGGT (site CTGCCATCTAC) | 0 |
| CTGCCCTCATGGACCGGTTTTCCCGGTAATCCGTATTTGTT (site CTGCCCTCTAA) | 2.18 |
| CTGCGTACATGGACCGGTTTTCCCGGTAATCCGTATTTGAT (site CTGCGTACTAT) | 1.81 |
| CTGCGTTCATGGACCGGTTTTCCCGGTAATCCGTATTTGAG (site CTGCGTTCTCT) | 2.26 |
| CTGCTAACATGGACCGGTTTTCCCGGTAATCCGTATTTGCT (site CTGCTAACTAG) | 2.26 |
| CTGCTAACATGGACCGGTTTTCCCGGTAATCCGTATTTGCT (site CTGCTACCTAG) | 0 |
| CTGCTAACATGGACCGGTTTTCCCGGTAATCCGTATTTGCT (site CTGCTAGCTAG) | 0.313 |
| CTGCTAACATGGACCGGTTTTCCCGGTAATCCGTATTTGCT (site CTGCTATCTAG) | 0.474 |
| CTGCTACCATGGACCGGTTTTCCCGGTAATCCGTATTTGCA (site CTGCTACCTAG) | 0.00394 |
| CTGCTACCATGGACCGGTTTTCCCGGTAATCCGTATTTGCA (site CTGCTACCTCG) | 0.00238 |
| CTGCTACCATGGACCGGTTTTCCCGGTAATCCGTATTTGCA (site CTGCTACCTGG) | 0 |
| CTGCTACCATGGACCGGTTTTCCCGGTAATCCGTATTTGCA (site CTGCTACCTTG) | 0 |
| CTGCTACCATGGACCGGTTTTCCCGGTAATCCGTATTTGGG (site CTGCTACCTCC) | 0.0335 |
| CTGCTACCATGGACCGGTTTTCCCGGTAATCCGTATTTGGT (site CTGCTACCTAA) | 0.00859 |

| Sequence | recombinant UMI read abundance (log10) |
| --- | --- |
| CTGCTACCATGGACCGGTTTTCCCGGTAATCCGTATTTGGT (site CTGCTACCTAC) | 0.00854 |
| CTGCTACCATGGACCGGTTTTCCCGGTAATCCGTATTTGGT (site CTGCTACCTAG) | 0 |
| CTGCTACCATGGACCGGTTTTCCCGGTAATCCGTATTTGGT (site CTGCTACCTAT) | 0.00703 |
| CTGCTGACATGGACCGGTTTTCCCGGTAATCCGTATTTGAT (site CTGCTGACTAT) | 2.13 |
| CTGCTTCCATGGACCGGTTTTCCCGGTAATCCGTATTTGGT (site CTGCTTCCTAC) | 0.0707 |
| CTGGAAACATGGACCGGTTTTCCCGGTAATCCGTATTTGAA (site CTGGAAACTTA) | 0.0938 |
| CTGGAAACATGGACCGGTTTTCCCGGTAATCCGTATTTGAA (site CTGGAAACTTC) | 0.988 |
| CTGGAAACATGGACCGGTTTTCCCGGTAATCCGTATTTGAA (site CTGGAAACTTG) | 0 |
| CTGGAAACATGGACCGGTTTTCCCGGTAATCCGTATTTGAA (site CTGGAAACTTT) | 2.09 |
| CTGGAAACATGGACCGGTTTTCCCGGTAATCCGTATTTGCA (site ATGGAAACTTG) | 0 |
| CTGGAAACATGGACCGGTTTTCCCGGTAATCCGTATTTGCA (site CAGGAAACTTG) | 1.85 |
| CTGGAAACATGGACCGGTTTTCCCGGTAATCCGTATTTGCA (site CCGGAAACTTG) | 1.93 |
| CTGGAAACATGGACCGGTTTTCCCGGTAATCCGTATTTGCA (site CGGGAAACTTG) | 0 |
| CTGGAAACATGGACCGGTTTTCCCGGTAATCCGTATTTGCA (site CTAGAAACTTG) | 2.19 |
| CTGGAAACATGGACCGGTTTTCCCGGTAATCCGTATTTGCA (site CTCGAAACTTG) | 0 |
| CTGGAAACATGGACCGGTTTTCCCGGTAATCCGTATTTGCA (site CTGAAAACTTG) | 0.744 |
| CTGGAAACATGGACCGGTTTTCCCGGTAATCCGTATTTGCA (site CTGCAAACTTG) | 0 |
| CTGGAAACATGGACCGGTTTTCCCGGTAATCCGTATTTGCA (site CTGGAAACTAG) | 0 |
| CTGGAAACATGGACCGGTTTTCCCGGTAATCCGTATTTGCA (site CTGGAAACTCG) | 0.843 |
| CTGGAAACATGGACCGGTTTTCCCGGTAATCCGTATTTGCA (site CTGGAAACTGG) | 0 |
| CTGGAAACATGGACCGGTTTTCCCGGTAATCCGTATTTGCA (site CTGGAAACTTA) | 1.34 |
| CTGGAAACATGGACCGGTTTTCCCGGTAATCCGTATTTGCA (site CTGGAAACTTC) | 0 |
| CTGGAAACATGGACCGGTTTTCCCGGTAATCCGTATTTGCA (site CTGGAAACTTG) | 2.2 |
| CTGGAAACATGGACCGGTTTTCCCGGTAATCCGTATTTGCA (site CTGGAAACTTT) | 2.16 |
| CTGGAAACATGGACCGGTTTTCCCGGTAATCCGTATTTGCA (site CTGGAACCTTG) | 0.0058 |
